In US20260001853A1, “ASCORBIC ACID DERIVATIVE OR SALT THEREOF, AND COSMETIC THEREOF” (SEIWA KASEI COMPANY, LIMITED, priority 2022, published 2026):

Assays:
[1] = system: Normal human dermal fibroblasts; assay: Collagen production promoting effect (ELISA of supernatant); assay type: cell-based; conditions: amount of collagen produced, % with control group taken as 100%; sample at 10 mmol/L or less, 48 hours, N=3
Description: Normal human dermal fibroblasts were prepared in D-MEM containing 5% (v/v) fetal bovine serum to a cell density of […] cells/well, and pre incubated on a 96-well plate for 24 hours. After removing the medium, samples prepared to a predetermined concentration in D-MEM containing 5% (v/v) fetal bovine serum were added to each well and cultured for 48 hours. After completion of the culture, the amount of free collagen in the supernatant was quantified by ELISA method. The measurement was performed with N=3.
(§1) The amount of collagen produced when the samples were measured at a concentration of 10 mmol/L or less was compared with that of the control group, and the results (% values when the control group is taken as 100%) are shown in Tables 15 to 17 based on the following criteria. • <100%: ± • 100-120%: + • 120%: ++

[2] = system: Normal human dermal fibroblasts (NHDF); assay: Hyaluronic acid production promoting effect (ELISA of supernatant); assay type: cell-based; conditions: amount of hyaluronic acid produced, % with control group taken as 100%; sample at 10 mmol/L or less, 48 hours, N=3
Description: Normal human dermal fibroblasts (NHDF) were prepared in D-MEM containing 5% (v/v) fetal bovine serum to a cell density of 2.5× 10^4 cells/well, and then pre-incubated on a 96-well plate for 24 hours. After removing the medium, samples prepared in serum-free D-MEM were added to each well and cultured for 48 hours. After the culture was completed, the amount of hyaluronic acid in the supernatant was quantified by ELISA method. The measurement was performed with N=3.
as §1, with “of hyaluronic acid” for “of collagen”, “Tables 18” for “Tables 15”, “to 20” for “to 17”, “• 120-150%:” for “• 120%:”, “++ • 150%: +++” for “++”

[3] = Stability test (residual rate by HPLC, odor, coloring); assay type: physicochemical; conditions: 1% aqueous solution; for Coloring / Odor: total score of 10 panelists
Description: With a dilute potassium hydroxide aqueous solution, 1% aqueous solution of each test sample was adjusted to pH 6, placed in a 50 mL screw tube, sealed, […], and then subjected to HPLC measurement (using a liquid chromatograph manufactured by Shimadzu Corporation) to determine the residual rate from the peak area. The residual rate, odor, and coloring degree were evaluated according to the following methods and criteria.
Residual rate: • ⊚: 90% or more • ◯: 80% or more, less than 90% • Δ: 60% or more, less than 80% • x: 20% or more, less than 60% • xx: Less than 20%
Evaluation was made by 10 panelists according to the following criteria. • 3: Almost odorless • 2: There is a slight strange odor. • 1: A strong odor is detected.
Based on the evaluation results, the following classification was made: • ⊚: Total score of 10 panelists is 25 or more • ◯: Total score of 10 panelists is 20-24 • Δ: Total score of 10 panelists is 16-19 • x: The total score of 10 panelists is 15 or less
Evaluation was made by 10 panelists according to the following criteria. • 3: Almost no change compared to immediately after preparation. • 2: Color changes compared to immediately after preparation. • 1: Strongly colored compared to immediately after preparation.
Based on the evaluation results, the following classification was made: • ◯: Total score of 10 panelists is 25 or more • Δ: Total score of 10 panelists is 16-24 • x: The total score of 10 panelists is 15 or less

B16 melanoma 4A5 cells = assay: Melanin production inhibitory effect (theophylline-induced melanin production); assay type: cell-based, mouse; conditions: melanin production inhibition rate, sample at a concentration of 10 mM or less, 3 days culture, theophylline 1 mmol/L, N=4
Description: As a test of the whitening effect, the effect on theophylline-induced melanin production in B16 melanoma 4A5 cells was evaluated for the ascorbic acid derivatives of the present invention according to the following procedure. A similar evaluation was also performed for a known ascorbic acid derivative for comparison. The results are shown in Tables 9 to 11. • (1) B16 mouse melanoma 4A5 cells were seeded in a 48-well plate at a cell density of 8.0×10^3 cells/well. • (2) After culturing for 24 hours in Dulbecco's modified Eagle's medium (manufactured by SIGMA, hereinafter abbreviated as “D-MEM”) containing 10% fetal bovine serum, the medium was replaced with D-MEM containing 10% fetal bovine serum containing theophylline (final concentration 1 mmol/L) and a specified concentration of a sample. • (3) After culturing for 3 days in the presence of the sample, the medium was removed using an aspirator, distilled water was added, and the cells were disrupted by ultrasonication. • (4) The amount of protein was then quantified using a BCA protein assay kit (manufactured by PIERCE), and the amount of melanin produced was measured by an alkali solubilization method. Sodium hydroxide was added to the cell lysate to a final concentration of 1 mol/L, and the solution was dissolved by heating (60° C., 30 minutes), thereafter the absorbance at 405 nm was measured using a microplate reader. The amount of melanin was calculated from a calibration curve prepared using synthetic melanin (SIGMA) as a standard. The amount of melanin per unit protein was calculated by dividing the amount of melanin by the amount of protein. • (5) The melanin production inhibition rate was calculated using the following formula.
[In the formula, A represents the amount of melanin per unit protein (g/g) when the sample was added, B represents the amount of melanin per unit protein (g/g) in the normal group, and C represents the amount of melanin per unit protein (g/g) in the control group.]
The melanin production inhibition rate when the sample was measured at a concentration of 10 mM or less is expressed as follows. The measurement was performed with N=4. • <20%: ± • 20-40%: + • 40-60%: ++ • 60-100%: +++

[4] = pH 6, stored at 50° C., four weeks later
[5] = pH 6, stored at 50° C., two weeks later

Structure (SMILES) | Collagen production promoting effect [1] | Hyaluronic acid production promoting effect [2] | Residual rate ([3]; pH 6, 50° C., initial) | Coloring ([3]; pH 6, 50° C., initial) | Odor ([3]; pH 6, 50° C., initial) | Residual rate [3, 4] | Coloring [3, 4] | Odor [3, 4] | Residual rate [3, 5] | Coloring [3, 5] | Odor [3, 5] | Melanin production inhibition effect (B16 melanoma 4A5 cells)
CCCCCCCCCCCCOC1=C(OCC(C)(C)O)C(=O)O[C@@H]1[C@@H](O)CO [Synthesis Example 8, 2-O-(2-hydroxyisobutyl)-3-O-dodecyl ascorbic acid] | ++ (120%: ++) | +++ (150%: +++) | ⊚ (⊚: 90% or more) | ◯ (◯: Total score of 10 panelists is 25 or more) | ◯ (◯: Total score of 10 panelists is 20-24) | ⊚ (⊚: 90% or more) | ◯ (◯: Total score of 10 panelists is 25 or more) | ◯ (◯: Total score of 10 panelists is 20-24) | ⊚ (⊚: 90% or more) | ◯ (◯: Total score of 10 panelists is 25 or more) | ◯ (◯: Total score of 10 panelists is 20-24) | ++ (40-60%: ++)
CCCCOCC(O)COC1=C(OCC(C)(C)O)C(=O)OC1C(O)CO (stereo not drawn) [Synthesis Example 14, 2-O-(2-hydroxyisobutyl)-3-O-(2-hydroxy-3-O-butyl) ascorbic acid] | ++ (120%: ++) | ++ (120-150%: ++) | ⊚ (⊚: 90% or more) | ◯ (◯: Total score of 10 panelists is 25 or more) | ⊚ (⊚: Total score of 10 panelists is 25 or more) | ⊚ (⊚: 90% or more) | ◯ (◯: Total score of 10 panelists is 25 or more) | ◯ (◯: Total score of 10 panelists is 20-24) | ⊚ (⊚: 90% or more) | ◯ (◯: Total score of 10 panelists is 25 or more) | ⊚ (⊚: Total score of 10 panelists is 25 or more) | ++ (40-60%: ++)
CC(C)(O)COC1=C(OCC(C)(C)O)[C@@H]([C@@H](O)CO)OC1=O [Synthesis Example 17, 2,3-di-O-(2-hydroxyisobutyl) ascorbic acid] | ++ (120%: ++) | ++ (120-150%: ++) | ⊚ (⊚: 90% or more) | ◯ (◯: Total score of 10 panelists is 25 or more) | ◯ (◯: Total score of 10 panelists is 20-24) | ⊚ (⊚: 90% or more) | ◯ (◯: Total score of 10 panelists is 25 or more) | ◯ (◯: Total score of 10 panelists is 20-24) | ⊚ (⊚: 90% or more) | ◯ (◯: Total score of 10 panelists is 25 or more) | ◯ (◯: Total score of 10 panelists is 20-24) | + (20-40%: +)
CCCCCCCCCCCCCCOC1=C(OCC(C)(C)O)[C@@H]([C@@H](O)CO)OC1=O [Synthesis Example 24, 2-O-tetradecyl-3-O-(2-hydroxyisobutyl) ascorbic acid] | ++ (120%: ++) | ++ (120-150%: ++) | ⊚ (⊚: 90% or more) | ◯ (◯: Total score of 10 panelists is 25 or more) | ◯ (◯: Total score of 10 panelists is 20-24) | ⊚ (⊚: 90% or more) | ◯ (◯: Total score of 10 panelists is 25 or more) | ◯ (◯: Total score of 10 panelists is 20-24) | ⊚ (⊚: 90% or more) | ◯ (◯: Total score of 10 panelists is 25 or more) | ◯ (◯: Total score of 10 panelists is 20-24) | +++ (60-100%: +++)
CCCCCCCCCCCCCCCCOC1=C(OCC(C)(C)O)[C@@H]([C@@H](O)CO)OC1=O [Synthesis Example 25, 2-O-hexadecyl-3-O-(2-hydroxyisobutyl) ascorbic acid] | ++ (120%: ++) | ++ (120-150%: ++) | – | – | – | – | – | – | – | – | – | + (20-40%: +)
C=CCOC1=C(OCC(C)(C)O)[C@@H]([C@@H](O)CO)OC1=O [Synthesis Example 26, 2-O-allyl-3-O-(2-hydroxyisobutyl) ascorbic acid] | ++ (120%: ++) | ++ (120-150%: ++) | – | – | – | – | – | – | – | – | – | + (20-40%: +)
CC(C)(O)COC1=C(OCc2ccccc2)C(=O)O[C@@H]1[C@@H](O)CO [Synthesis Example 27, 2-O-benzyl-3-O-(2-hydroxyisobutyl) ascorbic acid] | ++ (120%: ++) | +++ (150%: +++) | – | – | – | – | – | – | – | – | – | ++ (40-60%: ++)
CCCOC1=C(OCC(C)(C)O)C(=O)O[C@@H]1[C@@H](O)CO [Synthesis Example 32, 2-O-(2-hydroxyisobutyl)-3-O-propylascorbic acid] | ++ (120%: ++) | ++ (120-150%: ++) | – | – | – | – | – | – | – | – | – | ++ (40-60%: ++)
CCCOC1=C(OCC(C)(C)O)[C@@H]([C@@H](O)CO)OC1=O [Synthesis Example 33, 2-O-propyl-3-O-(2-hydroxyisobutyl) ascorbic acid] | ++ (120%: ++) | ++ (120-150%: ++) | – | – | – | – | – | – | – | – | – | ++ (40-60%: ++)
CC(O)COC1=C(OCC(C)(C)O)C(=O)O[C@@H]1[C@@H](O)CO (stereo partly drawn) [Synthesis Example 34, 2-O-(2-hydroxyisobutyl)-3-O-(2-hydroxypropyl) ascorbic acid] | + (100-120%: +) | ++ (120-150%: ++) | – | – | – | – | – | – | – | – | – | +++ (60-100%: +++)
CCC(O)COC1=C(OCC(C)(C)O)C(=O)O[C@@H]1[C@@H](O)CO (stereo partly drawn) [Synthesis Example 35, 2-O-(2-hydroxyisobutyl)-3-O-(2-hydroxybutyl) ascorbic acid] | ++ (120%: ++) | ++ (120-150%: ++) | – | – | – | – | – | – | – | – | – | ++ (40-60%: ++)
